Test results as given in patent publication US20250282749A1 (Tango Therapeutics, Inc., priority 2022, published 2025).

Assays:
Type in all cases: cell-based
[1] = test system: PRMT5 (SDMA) in HAP1 MTAP-intact cell line; experiment: SDMA in-cell western assay, HAP1 MTAP-intact cell line; conditions: Homo sapiens, HAP1 MTAP-intact cell line (endogenous MTAP), read-out: Hap 1 MTAP intact IC50
Excerpt: (§1) HAP1 MTAP-intact is a cell line in which endogenous levels of MTAP are expressed, and HAP1 MTAP-deleted is an MTAP-null cell line.

[2] = test system: PRMT5 (SDMA) in HAP1 MTAP-deleted cell line; experiment: SDMA in-cell western assay, HAP1 MTAP-deleted cell line; conditions: for IC50 / IC90: Homo sapiens, SDMA in-cell western, HAP1 MTAP-deleted (MTAP-null) cell line; for Hap1 MTAP intact/deleted ratio: ratio of SDMA in-cell western IC50 in HAP1 MTAP-intact to IC50 in HAP1 MTAP-deleted cell line
Excerpt: as §1

[3] = test system: HAP1 MTAP-deleted cell line; experiment: viability assay for the MTAP-deleted cell line; conditions: Homo sapiens

SMILES	IC50 [1] [µM]	IC50 [2] [µM]	IC90 [2] [µM]	Hap1 MTAP intact/deleted ratio [2]	IC50 [3] [µM]
C[C@@H]1CN(C(=O)C(=O)Nc2cnc(N)c(C3CC3)c2)[C@@H](c2ccc(F)cc2)CN1C(=O)OC(C)(C)C (stereo in doubt) [Compound 148, tert-butyl 4-(2-((6-amino-5-cyclopropylpyridin-3-yl)amino)-2-oxoacetyl)-5-(4-fluorophenyl)-2-methylpiperazine-1-carboxylate]	> 0.05	< 0.005	> 0.125	A (an IC50 ratio greater than or equal to 30 fold)	< 0.1
COc1ncc(NC(=O)C(=O)N2C[C@H](C)N(C(=O)C(C)C)C[C@H]2c2ccc(F)cc2)cc1C(N)=O [Compound 88, 5-[[2-[(2R,5S)-2-(4-fluorophenyl)-5-methyl-4-(2-methylpropanoyl)piperazin-1-yl]-2-oxo-acetyl]amino]-2-methoxy-pyridine-3-carboxamide]	> 0.05	> 0.05	> 0.125	C (an IC50 ratio of less than 15 fold)	> 1
CCc1cc(NC(=O)C(=O)N2CCN(C(=O)C3(C(F)(F)F)CC3)C[C@H]2c2ccc(F)c(Cl)c2)cnc1N (single isomer, unassigned) [Compound 123]	> 0.05	0.005 to 0.05	> 0.125	A (an IC50 ratio greater than or equal to 30 fold)	0.1 to 1
CCc1cc(NC(=O)C(=O)N2CCN(C(=O)C3(C(F)(F)F)CC3)C[C@@H]2c2ccc(F)c(Cl)c2)cnc1N [Compound 47, N-(6-amino-5-ethyl-3-pyridyl)-2-[(2S)-2-(3-chloro-4-fluoro-phenyl)-4-[1-(trifluoromethyl)cyclopropanecarbonyl]piperazin-1-yl]-2-oxo-acetamide]	> 0.05	> 0.05	> 0.125	C (an IC50 ratio of less than 15 fold)	> 1
Cc1cc(NC(=O)C(=O)N2C[C@@H](C)N(C(=O)C3(C(F)(F)F)CC3)C[C@@H]2c2ccccc2)cnc1N [Compound 78, N-(6-amino-5-methylpyridin-3-yl)-2-((2S,5R)-5-methyl-2-phenyl-4-(1-(trifluoromethyl)cyclopropanecarbonyl)piperazin-1-yl)-2-oxoacetamide]	> 0.05	0.005 to 0.05	> 0.125	B (an IC50 ratio greater than or equal to 15 fold but lower than 30 fold)	< 0.1
C[C@@H]1CN(C(=O)C(=O)Nc2cnc(N)c3cn[nH]c23)[C@@H](c2ccccc2)CN1C1(C)CC1 (racemic) [Compound 167, N-(4-Amino-1H-pyrazolo[4,3-c]pyridin-7-yl)-2-oxo-2-[rac-(2S,5R)-5-methyl-4-(1-methylcyclopropyl)-2-phenyl-piperazin-1-yl]acetamide]	> 0.05	< 0.005	–	A (an IC50 ratio greater than or equal to 30 fold)	< 0.1
COc1ncc(NC(=O)C(=O)N2C[C@@H](C)N(C(=O)C(C)C)C[C@@H]2c2ccc(F)c(Cl)c2)cc1C(N)=O [Compound 12, 5-(2-((2S,5R)-2-(3-chloro-4-fluorophenyl)-4-isobutyryl-5-methylpiperazin-1-yl)-2-oxoacetamido)-2-methoxynicotinamide]	> 0.05	0.005 to 0.05	> 0.125	A (an IC50 ratio greater than or equal to 30 fold)	0.1 to 1

The next lines start with results.

IC50 [1] [µM]	IC50 [2] [µM]	IC90 [2] [µM]	SMILES	Hap1 MTAP intact/deleted ratio [2]	IC50 [3] [µM]
> 0.05	0.005 to 0.05	0.075 to 0.125	C[C@@H]1CN(C(=O)C(=O)Nc2cncc3cn[nH]c23)[C@@H](c2ccccc2)CN1C(=O)C(C)(C)CN(C)C [Compound 68, 2-((2S,5R)-4-(3-(dimethylamino)-2,2-dimethylpropanoyl)-5-methyl-2-phenylpiperazin-1-yl)-2-oxo-N-(1H-pyrazolo[4,3-c]pyridin-7-yl)acetamide]	A (an IC50 ratio greater than or equal to 30 fold)	0.1 to 1
> 0.05	0.005 to 0.05	> 0.125	Cc1cc(NC(=O)C(=O)N2C[C@@H](C)N(C(=O)C3(C)CCN(C)C3)C[C@@H]2c2ccccc2)cnc1N (some centres unmarked) [Compound 34]	B (an IC50 ratio greater than or equal to 15 fold but lower than 30 fold)	0.1 to 1
> 0.05	0.005 to 0.05	0.075 to 0.125	CCc1cc(NC(=O)C(=O)N2C[C@@H](C)N(C(=O)C3(C(F)(F)F)CC3)C[C@@H]2c2ccc(C)cc2)cnc1N [Compound 85, N-(6-amino-5-ethylpyridin-3-yl)-2-((2S,5R)-5-methyl-2-(p-tolyl)-4-(1-(trifluoromethyl)cyclopropanecarbonyl)piperazin-1-yl)-2-oxoacetamide]	B (an IC50 ratio greater than or equal to 15 fold but lower than 30 fold)	< 0.1
> 0.05	< 0.005	> 0.125	Cc1cc(NC(=O)C(=O)N2C[C@@H](C)N(C(=O)C3(C)CC3)C[C@@H]2c2ccsc2)cnc1N [Compound 31, N-(6-amino-5-methyl-3-pyridyl)-2-[(2S,5R)-5-methyl-4-(1-methylcyclopropanecarbonyl)-2-(3-thienyl)piperazin-1-yl]-2-oxo-acetamide]	B (an IC50 ratio greater than or equal to 15 fold but lower than 30 fold)	< 0.1
0.005 to 0.05	< 0.005	< 0.075	C[C@@H]1CN(C(=O)C(=O)Nc2cnc(N)c(C3CC3)c2)[C@@H](c2ccc(F)cc2)CN1C(=O)C1(C)CC1 [Compound 8, N-(6-amino-5-cyclopropylpyridin-3-yl)-2-((2S,5R)-2-(4-fluorophenyl)-5-methyl-4-(1-methylcyclopropanecarbonyl)piperazin-1-yl)-2-oxoacetamide]	C (an IC50 ratio of less than 15 fold)	< 0.1
0.005 to 0.05	< 0.005	< 0.075	C[C@@H]1CN(C(=O)C(=O)Nc2cnc(N)c3cn[nH]c23)[C@@H](c2ccc(F)cc2)CN1C(=O)C1(C(F)(F)F)CC1 [Compound 79]	C (an IC50 ratio of less than 15 fold)	< 0.1
0.005 to 0.05	< 0.005	< 0.075	CCc1cc(NC(=O)C(=O)N2C[C@@H](C)N(C(=O)C(C)(C)C)C[C@@H]2c2ccc(N3CCN(C)CC3)cc2)cnc1N [Compound 130, N-(6-amino-5-ethylpyridin-3-yl)-2-((2S,5R)-5-methyl-2-(4-(4-methylpiperazin-1-yl)phenyl)-4-pivaloylpiperazin-1-yl)-2-oxoacetamide]	C (an IC50 ratio of less than 15 fold)	< 0.1
0.005 to 0.05	< 0.005	< 0.075	C[C@@H]1CN(C(=O)C(=O)Nc2cnc(N)c(C3CC3)c2)[C@@H](c2ccccc2)CN1C(=O)C(C)(C)C [Compound 97, N-(6-amino-5-cyclopropylpyridin-3-yl)-2-((2S,5R)-5-methyl-2-phenyl-4-pivaloylpiperazin-1-yl)-2-oxoacetamide]	C (an IC50 ratio of less than 15 fold)	< 0.1
